{"source": "PubChem BioAssay AID720588", "about": "(Broad Institute, 2013)", "note": "The source made the active and inactive calls.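 The calls were made as follows: active = fitted curve falls past a set limit of signal loss at no more than twice the top dose; inconclusive = flat fit between 30 and 70% signal loss, or poor fit; inactive = signal rise, flat within 30%, or crossing too high.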"}
{"assay": "HEK293T cell cytotoxicity, dose response, cytotoxicity control, CellTiter-Glo luminescence, cherry-pick, set 3 (AID 720588)", "details": "HEK293T viability, CellTiter-Glo ATP luminescence, 72 h; at 26 µM (top of the series)"}
{"smiles": "C[C@H]1CN([C@@H](C)CO)C(=O)c2cccc(NC(=O)c3ccc(-c4nccs4)cc3)c2O[C@@H]1CN(C)Cc1ccc(C(=O)Nc2ccccc2N)cc1", "activity change, negative = cytotoxicity": "28.9% (inactive)"}
{"smiles": "Cc1ccc(S(=O)(=O)N(C)C[C@@H]2Oc3cc(C#Cc4ccncc4)ccc3S(=O)(=O)N([C@@H](C)CO)C[C@H]2C)cc1", "activity change, negative = cytotoxicity": "-17% (inactive)"}
{"smiles": "COC(=O)C(CC#Cc1ccc2c(c1)[C@]1(C(=O)N2)[C@H](c2ccc(OCCO)cc2)N2[C@H](c3ccccc3)[C@H](c3ccccc3)OC(=O)[C@H]2[C@@H]1C(=O)N1CCN(c2ncccn2)CC1)C(=O)OC", "activity change, negative = cytotoxicity": "1.09% (inactive)"}
{"smiles": "CC(C)(C)C(=O)Nc1ccc(N=Nc2ccccc2)cc1", "activity change, negative = cytotoxicity": "-5.33% (inactive)"}
{"smiles": "C[C@@H]1CN([C@@H](C)CO)C(=O)c2cccc(NS(=O)(=O)c3ccc(F)cc3)c2O[C@@H]1CN(C)Cc1ccc(C(=O)Nc2ccccc2N)cc1", "activity change, negative = cytotoxicity": "-33.3% (inactive)"}
{"smiles": "OCCN1CCN(C(=S)c2ccc(-c3ccccc3)cc2)CC1", "activity change, negative = cytotoxicity": "-3.37% (inactive)"}
{"smiles": "O=C1CCCC2=C1C(c1ccccn1)Nc1ccc(C(=O)c3ccccc3)cc1N2", "note": "(centres undefined)", "activity change, negative = cytotoxicity": "7.12% (inactive)"}
{"smiles": "O=C1C(=O)N(CCS(=O)(=O)c2ccccc2)c2ccccc21", "activity change, negative = cytotoxicity": "17.1% (inactive)"}
{"smiles": "O=C1Nc2ccccc2C1=Nc1ccccc1-c1ccccc1", "activity change, negative = cytotoxicity": "-21.1% (inactive)"}
{"smiles": "Cc1c(CCOC(=O)CC23CC4CC(CC(C)(C4)C2)C3)sc[n+]1CC(=O)c1ccccc1", "activity change, negative = cytotoxicity": "12.1% (inactive)"}
{"smiles": "Nc1ccc(Oc2ccccc2-c2ccccc2)cc1", "activity change, negative = cytotoxicity": "-8.94% (inactive)"}
{"smiles": "CC1(C)Oc2cc3oc(-c4cc(O)cc(O)c4)cc3cc2CC1O", "note": "(centres undefined)", "activity change, negative = cytotoxicity": "-1.31% (inactive)"}
{"smiles": "Cc1noc(C)c1NC(=O)Nc1ccc2c(c1)CC(=O)N([C@H](C)CO)C[C@@H](C)[C@@H](CN(C)Cc1ccc(Cl)c(Cl)c1)O2", "activity change, negative = cytotoxicity": "56.7% (inactive)"}
{"smiles": "O=C(O)c1ccc2cc(-c3ccccc3)[nH]c2c1", "activity change, negative = cytotoxicity": "-28.5% (inactive)"}
{"smiles": "COc1ccc(OC)c(-c2cc(C(F)(F)F)c3c(n2)sc2c(O)cc(=O)[nH]c23)c1", "activity change, negative = cytotoxicity": "2.36% (inactive)"}
{"smiles": "COc1ccc(-c2sc3ccccc3c2-c2ccc(OCCN3CCCCC3)cc2)cc1", "activity change, negative = cytotoxicity": "-16% (inactive)"}
{"smiles": "COc1ccc(Cl)cc1S(=O)(=O)Nc1ccc2c(c1)n(C)c(=O)n2C", "activity change, negative = cytotoxicity": "-13.3% (inactive)"}
{"smiles": "CC1(CCc2ccccc2)NC(=O)N(CC(=O)N2CC(=O)Nc3ccccc32)C1=O", "note": "(centres undefined)", "activity change, negative = cytotoxicity": "-7.05% (inactive)"}
{"smiles": "CCn1c(C)cc(C(=O)CN2C(=O)c3ccccc3S2(=O)=O)c1C", "activity change, negative = cytotoxicity": "-4.24% (inactive)"}
{"smiles": "CCS(=O)(=O)N1Cc2ccccc2CC1C(=O)Nc1nnc(SCc2ccc(C#N)cc2)s1", "note": "(centres undefined)", "activity change, negative = cytotoxicity": "-8.94% (inactive)"}
{"smiles": "COc1ccc(/C=C2\\SC(=S)N(CCCC(=O)NC3CCCC3)C2=O)cc1OC", "activity change, negative = cytotoxicity": "-24.3% (inactive)"}
{"smiles": "C[C@@H]1CN([C@@H](C)CO)S(=O)(=O)c2ccc(C#Cc3ccncc3)cc2O[C@H]1CN(C)C(=O)C1CCOCC1", "activity change, negative = cytotoxicity": "19.2% (inactive)"}
{"smiles": "COc1ccc(C(=O)OCC(=O)Nc2ccc(Cl)c(C(F)(F)F)c2)c(OC)c1OC", "activity change, negative = cytotoxicity": "6.28% (inactive)"}
{"smiles": "COc1cccc(OC)c1C(=O)Nc1cc(C)nn1-c1nc2ccccc2[nH]1", "activity change, negative = cytotoxicity": "-11.9% (inactive)"}
{"smiles": "COc1ccc(CN(C)c2ncnc3sccc23)c(OC)c1OC", "activity change, negative = cytotoxicity": "-29.1% (inactive)"}
{"smiles": "C(=N\\Nc1ccc2ccccc2n1)/c1ccc2c(c1)OCO2", "activity change, negative = cytotoxicity": "-17.5% (inactive)"}
{"smiles": "CCCC[C@@H]1Cc2[nH][nH]c(=O)c2[C@H](c2ccc3ccccc3c2)O1", "activity change, negative = cytotoxicity": "16.6% (inactive)"}
{"smiles": "COCCCNc1ccn2nc(-c3ccccc3)cc2n1", "activity change, negative = cytotoxicity": "-27.1% (inactive)"}
{"smiles": "CCCCCCN(C(=O)CCCCCN1C(=O)NC(c2ccc(Cl)cc2)C(C(=O)OCc2ccccc2)=C1C)C(C(=O)NCCCC)c1ccc(OCC(=O)OC)c(C(=O)OC)c1", "note": "(centres undefined)", "activity change, negative = cytotoxicity": "-3.96% (inactive)"}
